According to patent publication US20090136624A1, “LACTIC ACID BACTERIA PRODUCING NISIN AT HIGH CONCENTRATION AND METHOD FOR SELECTING THE SAME” (Ajinomoto Co., Inc., priority 2004, published 2009):

Tests used:
[1] = tested on: Nisin Z-producing strain (parent strain); assay: Growth of parent strain on Nisin-containing M17 medium (MIC); assay type: cell-based, Lactococcus lactis; details: 30° C., 2 days
Protocol: A Nisin Z-producing strain (parent strain shown in Table 3) separated from its native environment was plated on M17 medium (manufactured by Difco) prepared such that a Nisin concentration became 1,000, 2,000, 5,000 or 10,000 IU/mL, and was cultured at 30° C. for 2 days. This strain grew in M17 medium having a Nisin concentration of 1,000 or 2,000 IU/mL, but not in M17 medium having a Nisin concentration of 5,000 or 10,000 IU/mL. From the results, it was confirmed that the minimum growth inhibitory concentration (MIC) of this strain to Nisin was 5,000 IU/mL.

[2] = tested on: Nisin Z-producing lactic acid bacteria (mutated strain); assay: Growth of NTG-mutated Nisin Z-producing lactic acid bacteria in Nisin-containing M17 medium; assay type: cell-based, Lactococcus lactis
Protocol: The Nisin Z-producing lactic acid bacteria separated from its native environment were precultured in M17 medium, and the lactic acid bacteria were treated with 500 μg/mL of NTG to induce mutation.

Nisin was tested, and the “minimum growth inhibitory concentration (MIC) of this strain to Nisin” value [1] was 5,000 IU/mL, the Growth number ([2]; Nisin conc. 1,000 IU/ml) was 1.20E+09 cell/ml and the Growth number ([2]; Nisin conc. 2,000 IU/ml) was 1.20E+09 cell/ml. The Growth number ([2]; Nisin conc. 4,000 IU/ml) was 1.20E+09 cell/ml, the Growth number ([2]; Nisin conc. 8,000 IU/ml) was 7.00E+08 cell/ml and the Growth number ([2]; Nisin conc. 10,000 IU/ml) was 1.14E+08 cell/ml. For the same substance, the Growth number ([2]; Nisin conc. 20,000 IU/ml) was 3.21E+07 cell/ml, the Growth number ([2]; Nisin conc. 40,000 IU/ml) was 9.35E+05 cell/ml and the Growth number ([2]; Nisin conc. 80,000 IU/ml) was 1.16E+03 cell/ml. It also gave a Growth number ([2]; Nisin conc. 100,000 IU/ml) of 4.76E+02 cell/ml.
